Assay results from patent publication US8454938B2, “Treatment of respiratory diseases” (Solaeromed Inc., priority 2005, dated 2013).

Test system: allergic bronchoconstriction in Brown Norway rats
Assay: Allergic asthma model: OVA-sensitized and challenged Brown Norway rats, whole body plethysmography (Penh)
Format: in vivo, Brown Norway rat
Method: An animal model of allergic asthma was developed by sensitizing Brown Norway rats (BNR) to ovalbumin (OVA) and subsequently challenging them with the same allergen.
Male Brown Norway rats (BN/SsdNhsd) 150-199 g were used. A stock solution prepared containing the following ingredients: 10 mL 0.9% of sterile saline solution, 100 μL of ovalbumin solution 1 mg/mL in saline, 1.5 g Al(OH)3 and 10 μL Bordetella Pertussis purified toxin stock solution 500 ng/mL. The solution is mixed thoroughly but not vortexed and then injected intraperitoneally into each rat using a 1 cc syringe and 25-gauge needle.
The rat is placed in the whole body plethysmograph/chamber for approximately 30 minutes in order to calm down. Baseline pulmonary function is recorded for 30 minutes. A solution of ovalbumin 5% in saline is aerosolized for 5 minutes using an ultrasonic nebulizer from Buxco®. The pulmonary function is recorded for 6 hrs during which the effects of different treatments on airway resistance were evaluated.
A whole body plethysmograph from Buxco® was used to monitor pulmonary function and the effect of perfluorocarbon fluids (PFCs) and/or different gas mixture containing CO2 on constricted airways. The plethysmograph consists of a chamber with a pressure transducer along with humidity and temperature probes connected to an amplifier Max II, which is connected to a personal computer and managed by BioSystem XA software. In addition, there are two flow regulators to pump the air or CO2 containing gas mixture in and out of the chamber, and an ultrasonic nebulizer. The primary advantage of the Buxco® methodology is that it is non-invasive and minimizes stress, with animals allowed to freely roam within the measuring chamber. The evaluation of bronchoconstriction was achieved using the Penh (enhanced pause) (an index of airway obstruction) [see Hamelmann et al., (1997) Noninvasive measurement of airway responsiveness in allergic mice using barometric plethysmography, Am J Respir Crit Care Med […] September; 156(3 Pt 1):766-775, incorporated herein by reference]. […]
A gas mixture containing air and CO2 (2, 5, 8, 10 and 20%, respectively, by volume) was delivered to the plethysmograph chamber as described above. The gas was monitored (O2 and CO2) using a gas analyzer from Buxco® and pulmonary function was recorded during and after cessation of the treatment. All treatments were delivered during the late phase response to OVA challenge. […]
FC-43 is placed in the Arcotech dual chamber jet nebulizer and driven by a gas mixture containing air and 5% CO2 by volume. The concentration of FC-43 was determined as outlined above and averaged about 39 mg/liter. The treatment was delivered for 10 minutes. Two minutes after cessation of the first treatment, salbutamol (1 mg/ml) was delivered for 5 minutes using an ultrasonic nebulizer.
FC-77 is placed in the Arcotech dual chamber jet nebulizer and driven by a gas mixture containing air and 5% CO2 by volume. The treatment was delivered for 10 minutes. For technical reasons pulmonary function was evaluated immediately after cessation of the treatment.
Perfluorodecalin is placed in the Arcotech dual chamber jet nebulizer and driven by a gas mixture containing air and 5% CO2 by volume. The treatment was delivered for 10 minutes. For technical reasons pulmonary function was evaluated immediately after cessation of the treatment.
Perfluorooctylbromide is placed in the Arcotech dual chamber jet nebulizer and driven by a gas mixture containing air and 20% CO2 by volume. The treatment was delivered for 10 minutes. For technical reasons pulmonary function was evaluated immediately after cessation of the treatment.
A mixture of approximately equal amounts of FC-43 and FC-77 was placed in the Arcotech dual chamber jet nebulizer and driven by a gas mixture containing air and 5% CO2 by volume. The treatment was delivered for 10 minutes. […]

| SMILES | bronchodilation by CO2 alone (2%, 5%, 8%, 10% and 20% CO2 by volume, balance air) | duration of bronchodilation (20% CO2 in air alone) | relaxation of constricted airways (percent reduction of bronchoconstriction), comparison between CO2 concentrations (20% and 8% CO2 compared with 2% and 5% CO2 in air, groups of rats) | drop in Penh (salbutamol 1 mg/ml alone) | duration of drop in Penh before returning to pretreatment levels (salbutamol 1 mg/ml alone) [min] | duration of response (salbutamol 1 mg/ml given after PFC/CO2 treatment) | drop in Penh (response) (salbutamol 1 mg/ml given after PFC/CO2 treatment (FC-43 with 5% CO2 in air, 10 minutes)) |
| --- | --- | --- | --- | --- | --- | --- | --- |
| O=C=O [CO2, carbon dioxide] | acts as a bronchodilator | approximately 2 minutes | significantly (P<0.05) higher | – | – | – | – |
| CC(C)(C)NCC(O)c1ccc(O)c(CO)c1 (stereo not shown) [salbutamol] | – | – | – | approximately 60% | 5 | never returned to pre-treatment levels | approximately 70% |
